Consider seven molecules from patent publication US8017620B2, “Dutpase inhibitors” (Medivir AB, priority 2004, dated 2011).

Assay [1] concerns the target T1, Plasmodium falciparum dUTPase (Plasmodium falciparum, UniProt Q8II92).
T1 construct: made in house; host or cells: E. coli BL21 (DE3)
T1 sequence (Q8II92 1-173): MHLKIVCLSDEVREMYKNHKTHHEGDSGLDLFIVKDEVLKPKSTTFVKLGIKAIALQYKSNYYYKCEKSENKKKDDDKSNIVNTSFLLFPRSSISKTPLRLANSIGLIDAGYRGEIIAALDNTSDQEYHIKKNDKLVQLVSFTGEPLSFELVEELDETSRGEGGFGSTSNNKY
Description: Inhibition of Plasmodium falciparum dUTPase (malaria enzyme assay). Type of assay: biochemical. The method, then:
Inhibition of Plasmodium falciparum dUTPase
2′-dUTP, was purchased from Pharmacia. MgCl2, BSA, and the pH indicator cresol red were from Sigma. The buffer N,N-bis(2-hydroxyethyl)glycine (BICINE) was obtained from USB (United States Biochemical), Ohio. All the concentrations of nucleotides were calculated spectrophotometrically (HP-8453, Hewlett Packard) at 280 nm, using the extinction coefficient (ε280 nm=1.75 ml mg^−1cm^−1). Other chemicals used in these experiments were of the highest quality available.
Conserved motifs of the human dUTPase enzyme were used as query to identify the PFdut gene in the www.tigr.org database of the Plasmodium falciparum 3D7 strain. The entire coding sequence was amplified by the PCR using as template cDNA and as primers the oligonucleotides ATG-PFdut ([…]) and TGA-PFdut ([…]) which were designed so that NdeI and BamHI restriction sites were introduced at the 5′ and 3′ ends for convenient cloning in the expression vector pET11 (Stratagene). The amplified product was cloned into pGEMT (Promega) and propagated in E. coli XL1B cells. In order to confirm the correct sequence after amplification, sequencing was performed using an Applied Biosystems Automated Sequencer, at the Analytical Services of the Instituto de Parasitología y Biomedicina “López Neyra”. These Services also supplied the oligonucleotides designed for the sequencing
Recombinant P. falciparum dUTPase was purified from E. coli BL21 (DE3) cells transformed with pET-PFdut. Pellets from a liter of culture were resuspended in a solution consisting of buffer A (20 mM MES pH 5.5, 50 mM NaCl, 1 mM DTT) plus the protease inhibitors 1 mM PMSF, 20 μg/ml leupeptin and 1 mM benzamidine. Purification was carried out in a cold room (4° C.). The soluble crude extract was obtained by sonication in a Vibra-cell (Sonics and Materials Inc. Danbury, Conn., USA) and centrifugation at 14000×g. The extract was loaded onto a phosphocellulose column (Whatman) pre-equilibrated with buffer A at a flow rate of 1 ml/min. After washing the column with 100 ml of buffer A, elution was performed using a linear NaCl gradient of 50 to 1000 mM. Peak fractions with a low concentration of contaminating protein, as judged by 15% SDS-PAGE gels, were pooled and then loaded and chromatographed on a Superdex 200 column at a flow rate of 0.5 ml/min. The column was equilibrated with buffer B (50 mM Bicine, 1 mM DTT, 10 mM MgCl2). Peak fractions were pooled and concentrated to about 5 mg/ml by ultrafiltration in a Centripep tube (Amicon) and stored at −80° C.
Nucleotide hydrolysis was monitored by mixing enzyme and substrate with a rapid kinetic accessory (Hi-Tech Scientific) attached to a spectrophotometer (Cary 50) and connected to a computer for data acquisition and storage. Protons, released through the hydrolysis of nucleotides, were neutralised by a pH indicator in a weak buffered medium with similar pKa and monitored spectrophotometrically at the absorbance peak of the basic form of the indicator. Absorbance changes were kept within 0.1 units. The indicator/buffer pair used was cresol red/BICINE ([…], pH 8, 573 nm). The measurements were performed at 25° C., and the solutions were previously degassed. […] Indicator absorbance changes corresponding to complete hydrolysis of nucleotides were recorded in the computer, and the kinetic parameters Vmax and Kmapp (or slope) were calculated by fitting the data to the integrated Michaelis-Menten equation (Segel, 1975). […]

Assay [2] concerns the target T2, Human recombinant dUTPase (Homo sapiens, UniProt P33316).
T2 construct: made in house; host or cells: E. coli BL21 (DE3)
T2 sequence (P33316 112-252 limits assumed): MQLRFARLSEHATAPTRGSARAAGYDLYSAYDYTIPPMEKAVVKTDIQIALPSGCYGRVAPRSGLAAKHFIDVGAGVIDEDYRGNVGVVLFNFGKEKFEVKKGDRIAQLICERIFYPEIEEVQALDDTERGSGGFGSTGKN
Description: Human dUTPase assay. Type of assay: biochemical. The following applies: human enzyme versus Plasmodium falciparum enzyme. As for the experimental part:
Human recombinant dUTPase was purified from E. coli BL21 (DE3) cells transformed with pETHudut (Dr. P. O. Nyman, Lund University). Purification was accomplished as described for the dUTPase above except that the last step in Superdex 200 was omitted. Likewise, conditions for enzyme assays were the same as described above except that the enzyme concentration was 50 nM.

Assay [3] relates to P. falciparum. Description: Malaria whole cell assay (3H-hypoxanthine incorporation). In kind it is cell-based. The following applies: Plasmodium falciparum cell culture; read-out: ED50 (the source's name). As for the experimental part: Two strains of P. falciparum are used in this study: The drug sensitive NF54 (an airport strain of unknown origin) and K1 (Thailand, chloroquine and pyrimethamine resistant). The strains are maintained in RPMI-1640 medium with 0.36 mM hypoxanthine supplemented with 25 mM HEPES, 25 mM NaHC03, neomycin (100 U/ml) and Albumax^R (lipid-rich bovine serum albumin) (GIBCO, Grand Island, N.Y.) (5 g/l), together with 5% washed human A+ erythrocytes. All cultures and assays are conducted at 37° C. under an atmosphere of 4% C02, 3% 02 and 93% N2. Cultures are kept in incubation chambers filled with the gas mixture. Subcultures are diluted to a parasitaemia of 0.1-0.5% and the medium changed daily.
Antimalarial activity is assessed using an adaptation of the procedures described by Desjardins et al. (Antimicrob. Agents Chemother. 16(6):710-8, 1979), and Matile and Pink (In: Lefkovits, I. and Pernis, B. (Eds.). Immunological Methods. Academic Press, San Diego, pp. 221-234, 1990).
After use the stocks are kept at −20° C. The compound is further diluted to the appropriate concentration using complete medium without hypoxanthine.
Assays are performed in sterile 96-well microtiter plates, each well containing 200 μl of parasite culture (0.15% parasitemia, 2.5% hematocrit) with or without serial drug solutions. Seven 2-fold dilutions are used covering a range from 5 μg/ml 0.078 μg/ml.
After 48 hours of incubation at 37° C., 0.5 μCi ^3H-hypoxanthine is added to each well. Cultures are incubated for a further 24 h before they are harvested onto glass-fiber filters and washed with distilled water. The radioactivity is counted using a Betaplate™ liquid scintillation counter (Wallac, Zurich, Switzerland). […] From the sigmoidal inhibition curves IC50 values are calculated.
K1 strain is used. The compounds are tested at 7 concentrations (5000 to 78 ng/ml). Artemisinin and chloroquine are included as reference drugs.
A new range of concentrations is chosen depending on the IC50 determined (e.g. 100 to 1.56 ng/ml) and the assay is carried out 2× independently.
The standard drugs are chloroquine and artemisinin which are run in the same assay.

The target of assay [4] is Leishmania dUTPase (Leishmania major, UniProt O15826). The following applies: Hidalgo-Zarco and González-Pacanowska 2001; cited from earlier work.
Setting [5] is: Plasmodium falciparum enzyme, read-out: Ki.

Like-named read-outs stand apart in the source and are kept apart here.

Sequence of Leishmania dUTPase (O15826 entry or part of it): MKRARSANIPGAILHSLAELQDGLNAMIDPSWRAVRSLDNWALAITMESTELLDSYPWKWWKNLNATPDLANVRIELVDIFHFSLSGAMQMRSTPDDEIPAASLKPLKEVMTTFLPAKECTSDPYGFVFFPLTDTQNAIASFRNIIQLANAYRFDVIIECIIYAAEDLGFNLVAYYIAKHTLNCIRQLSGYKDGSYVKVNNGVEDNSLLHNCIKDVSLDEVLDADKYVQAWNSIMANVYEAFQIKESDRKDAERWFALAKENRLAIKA

The Ki is a dissociation constant, usually derived from enzyme kinetics or from competition with a known ligand. In the case of `O=c1ccn(CCCCNC(c2ccccc2)(c2ccccc2)c2ccccc2)c(=O)[nH]1`, the Ki in assay [1] (setting [5]) stood at 0.9 µM. Besides, the “SI (selectivity over the human enzyme)” value in assay [2] was found to be 1111. Further, the EC50 in assay [3] was determined as 3.8 µM.
The corresponding values for `O=c1ccn(CCCCCNC(c2ccccc2)(c2ccccc2)c2ccccc2)c(=O)[nH]1` are 4.29 µM, over 233 and 2.2 µM.
`O=c1ccn(COCCOC(c2ccccc2)(c2ccccc2)c2ccccc2)c(=O)[nH]1` yielded an inhibition constant (Ki) in assay [1] of 0.67 µM. For the same molecule, in assay [2], the “SI (selectivity over the human enzyme)” value came to 25.3. For the same molecule, the EC50 in assay [3] was 0.9 µM.
The corresponding values for `O=c1ccn(CCCCOC(c2ccccc2)(c2ccccc2)c2ccccc2)c(=O)[nH]1` are 1.62 µM, 617 and 4.9 µM.
The corresponding values for `O=c1ccn(CCCCO[Si](c2ccccc2)(c2ccccc2)c2ccccc2)c(=O)[nH]1` are 1.69 µM, 226 and 0.43 µM.
`COc1ccc(C(OC[C@H]2O[C@@H](n3ccc(=O)[nH]c3=O)C[C@@H]2O)(c2ccccc2)c2ccc(OC)cc2)cc1` [5′-O-(4-4′-dimethoxytrityl)-2′-deoxyuridine]: the “inhibition of Leishmania dUTPase” value in assay [4] is listed as “no inhibition”.
Regarding `O=c1ccn([C@H]2C[C@H](O)[C@@H](COP(=O)(O)NP(=O)(O)OP(=O)(O)O)O2)c(=O)[nH]1` [α-β-imido-dUTP], the “inhibition of Leishmania dUTPase” value in assay [4] is given as “Competitive inhibition”.
